Results as given in patent US20250129430A1, “HIGH ATP-AFFINITY PROTEIN AS THERAPEUTIC TARGET FOR INTRACTABLE CANCER MOLECULAR SUBTYPES AND INHIBITOR THEREOF” (VeraVerse Co., Ltd., priority 2021, published 2025).

Legend:
Assay in all cases: Cell viability drug screen, 12-point dose-response AUC
Format in all cases: cell-based, human
[1] = system: AGS; settings: 72 hours; for area under the viability curve (AUC), normalized: AGS cells, 12-point dose-response
Outline: (§1)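 Each cell line receives a twelve-point half-log titration of drug beginning 24 h after plating 5×10^3 cells per well. Following 72 h culture at 37 °C, luminescent signal is recorded and expressed versus vehicle. AUC is derived by the trapezoidal method.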

[2] = system: Hs746T; settings: 72 hours; for area under the viability curve (AUC), normalized: Hs746T cells, 12-point dose-response
Outline: (§2)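 Luminescent viability readings, taken 15 min after reagent addition at room temperature, were normalized to the 0.5% DMSO control to build 12-point dose-response curves. Trapezoidal integration gave the AUC. Cells had been plated at 5×10^3 per well and then exposed to half-log dilutions for 72 h.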

[3] = system: KATO3; settings: KATO3 cells, 72 hours; for area under the viability curve (AUC), normalized: 12-point dose-response
Outline: as §2

[4] = system: MKN1; settings: MKN1 cells, 72 hours; for area under the viability curve (AUC), normalized: 12-point dose-response
Outline: as §2

[5] = system: MKN28; settings: MKN28 cells, 72 hours; for area under the viability curve (AUC), normalized: 12-point dose-response
Outline: as §2

[6] = system: MKN45; settings: 72 hours; for area under the viability curve (AUC), normalized: MKN45 cells, 12-point dose-response
Outline: as §1

[7] = system: MKN74; settings: MKN74 cells, 72 hours; for area under the viability curve (AUC), normalized: 12-point dose-response
Outline: as §1

[8] = system: NCC19; settings: NCC19 cells, 72 hours; for area under the viability curve (AUC), normalized: 12-point dose-response
Outline: as §2

[9] = system: NCC20; settings: NCC20 cells, 72 hours; for area under the viability curve (AUC), normalized: 12-point dose-response
Outline: as §2

[10] = system: NCC24; settings: NCC24 cells, 72 hours; for area under the viability curve (AUC), normalized: 12-point dose-response
Outline: as §2

[11] = system: NCC59; settings: NCC59 cells, 72 hours; for area under the viability curve (AUC), normalized: 12-point dose-response
Outline: as §2

[12] = system: NCI_N87; settings: NCI_N87 cells, 72 hours; for area under the viability curve (AUC), normalized: 12-point dose-response
Outline: as §2

[13] = system: OCUM1; settings: OCUM1 cells, 72 hours; for area under the viability curve (AUC), normalized: 12-point dose-response
Outline: as §2

[14] = system: SK4; settings: 72 hours; for area under the viability curve (AUC), normalized: SK4 cells, 12-point dose-response
Outline: as §2

[15] = system: SNU16; settings: SNU16 cells, 72 hours; for area under the viability curve (AUC), normalized: 12-point dose-response
Outline: as §2

[16] = system: SNU1750; settings: 72 hours; for area under the viability curve (AUC), normalized: SNU1750 cells, 12-point dose-response
Outline: as §2

[17] = system: SNU1967; settings: SNU1967 cells, 72 hours; for area under the viability curve (AUC), normalized: 12-point dose-response
Outline: as §2

[18] = system: SNU1; settings: SNU1 cells, 72 hours; for area under the viability curve (AUC), normalized: 12-point dose-response
Outline: as §2

[19] = system: SNU216; settings: 72 hours; for area under the viability curve (AUC), normalized: SNU216 cells, 12-point dose-response
Outline: as §1

[20] = system: SNU484; settings: 72 hours; for area under the viability curve (AUC), normalized: SNU484 cells, 12-point dose-response
Outline: as §2

[21] = system: SNU601; settings: SNU601 cells, 72 hours; for area under the viability curve (AUC), normalized: 12-point dose-response
Outline: as §2

[22] = system: SNU620; settings: SNU620 cells, 72 hours; for area under the viability curve (AUC), normalized: 12-point dose-response
Outline: as §2

[23] = system: SNU638; settings: SNU638 cells, 72 hours; for area under the viability curve (AUC), normalized: 12-point dose-response
Outline: as §2

[24] = system: SNU668; settings: 72 hours; for area under the viability curve (AUC), normalized: SNU668 cells, 12-point dose-response
Outline: as §2

[25] = system: SNU719; settings: SNU719 cells, 72 hours; for area under the viability curve (AUC), normalized: 12-point dose-response
Outline: as §1

[26] = system: YCC11; settings: 72 hours; for area under the viability curve (AUC), normalized: YCC11 cells, 12-point dose-response
Outline: as §2

[27] = system: YCC2; settings: YCC2 cells, 72 hours; for area under the viability curve (AUC), normalized: 12-point dose-response
Outline: as §2

[28] = system: YCC3; settings: YCC3 cells, 72 hours; for area under the viability curve (AUC), normalized: 12-point dose-response
Outline: as §2

[29] = system: FU97; design: Average Area Under the Viability Curve (AUC), AUC norm value: scale not given here; settings: FU97 cells, 72 hours; for area under the viability curve (AUC), normalized: 12-point dose-response
Outline: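 Trapezoidal AUC of a 12-point, DMSO-normalized dose-response curve. Luminescent viability was measured after 72 h of exposure at 37° C to half-log serial dilutions (0.5% DMSO control), dosed 24 h after plating FU97 cells at 5×10^3 per well.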

SMILES: CCCOc1ccc2nc(NC(=O)OC)[nH]c2c1 [Oxybendazole]
- area under the viability curve (AUC), normalized [1]: −1.064
- area under the viability curve (AUC), normalized [2]: 1.204
- area under the viability curve (AUC), normalized [3]: 3.472
- area under the viability curve (AUC), normalized [4]: −0.5859
- area under the viability curve (AUC), normalized [5]: −0.1307
- area under the viability curve (AUC), normalized [6]: 2.187
- area under the viability curve (AUC), normalized [7]: 0.4498
- area under the viability curve (AUC), normalized [8]: 1.219
- area under the viability curve (AUC), normalized [9]: −0.7466
- area under the viability curve (AUC), normalized [10]: −1.131
- area under the viability curve (AUC), normalized [11]: 2.518
- area under the viability curve (AUC), normalized [12]: −0.1928
- area under the viability curve (AUC), normalized [13]: 1.059
- area under the viability curve (AUC), normalized [14]: −0.1414
- area under the viability curve (AUC), normalized [15]: 2.326
- area under the viability curve (AUC), normalized [16]: 0.4952
- area under the viability curve (AUC), normalized [17]: 0
- area under the viability curve (AUC), normalized [18]: −1.007
- area under the viability curve (AUC), normalized [19]: 1.744
- area under the viability curve (AUC), normalized [20]: −0.00299
- area under the viability curve (AUC), normalized [21]: 1.095
- area under the viability curve (AUC), normalized [22]: −1.528
- area under the viability curve (AUC), normalized [23]: −0.2808
- area under the viability curve (AUC), normalized [24]: −0.3638
- area under the viability curve (AUC), normalized [25]: 3.17
- area under the viability curve (AUC), normalized [26]: −0.2902
- area under the viability curve (AUC), normalized [27]: 0.7894
- area under the viability curve (AUC), normalized [28]: 2.897
- area under the viability curve (AUC), normalized [29]: −0.3548

SMILES: CN(C)Cc1c(C(=O)NCCOc2ccc(C(=O)NO)cc2)oc2ccccc12 [PCI-24781]
- Average Area Under the Viability Curve (AUC), AUC norm value ([1]; AGS cells (non-SEM subtype)): −1.161
- Average Area Under the Viability Curve (AUC), AUC norm value ([2]; Hs746T cells (SEM subtype)): −0.03183
- Average Area Under the Viability Curve (AUC), AUC norm value [3]: −0.2111
- Average Area Under the Viability Curve (AUC), AUC norm value [4]: 0.6581
- Average Area Under the Viability Curve (AUC), AUC norm value [5]: −0.378
- Average Area Under the Viability Curve (AUC), AUC norm value ([6]; MKN45 cells (non-SEM subtype)): 2.259
- Average Area Under the Viability Curve (AUC), AUC norm value [7]: 0.2128
- Average Area Under the Viability Curve (AUC), AUC norm value [8]: 0.3282
- Average Area Under the Viability Curve (AUC), AUC norm value [9]: −1.065
- Average Area Under the Viability Curve (AUC), AUC norm value [10]: −0.2766
- Average Area Under the Viability Curve (AUC), AUC norm value [11]: 0.9766
- Average Area Under the Viability Curve (AUC), AUC norm value [12]: −0.3803
- Average Area Under the Viability Curve (AUC), AUC norm value [13]: 0
- Average Area Under the Viability Curve (AUC), AUC norm value ([14]; SK4 cells (SEM subtype)): 0.451
- Average Area Under the Viability Curve (AUC), AUC norm value [15]: −1.233
- Average Area Under the Viability Curve (AUC), AUC norm value ([16]; SNU1750 cells (SEM subtype)): −1.499
- Average Area Under the Viability Curve (AUC), AUC norm value [17]: −1.126
- Average Area Under the Viability Curve (AUC), AUC norm value [18]: 0.3429
- Average Area Under the Viability Curve (AUC), AUC norm value ([19]; SNU216 cells (non-SEM subtype)): 0.03042
- Average Area Under the Viability Curve (AUC), AUC norm value ([20]; SNU484 cells (SEM subtype)): 0.1533
- Average Area Under the Viability Curve (AUC), AUC norm value [21]: 0.6141
- Average Area Under the Viability Curve (AUC), AUC norm value [22]: −0.6966
- Average Area Under the Viability Curve (AUC), AUC norm value [23]: −0.06055
- Average Area Under the Viability Curve (AUC), AUC norm value ([24]; SNU668 cells (SEM subtype)): 0.53
- Average Area Under the Viability Curve (AUC), AUC norm value [25]: 1.428
- Average Area Under the Viability Curve (AUC), AUC norm value ([26]; YCC11 cells (SEM subtype)): −0.09531
- Average Area Under the Viability Curve (AUC), AUC norm value [27]: 0.00064
- Average Area Under the Viability Curve (AUC), AUC norm value [28]: 0.8426
- Average Area Under the Viability Curve (AUC), AUC norm value [29]: −1.786

SMILES: CC(=O)O[C@H]1C(=O)[C@@]2(C)[C@H]([C@H](OC(=O)c3ccccc3)[C@]3(O)C[C@H](OC(=O)[C@H](O)[C@@H](NC(=O)c4ccccc4)c4ccccc4)C(C)=C1C3(C)C)[C@]1(OC(C)=O)CO[C@@H]1C[C@@H]2O [Paclitaxel (Taxol), Paclitaxel]
- area under the viability curve (AUC), normalized [1]: −1.831
- area under the viability curve (AUC), normalized [2]: 0.7342
- area under the viability curve (AUC), normalized [3]: 5.3572
- area under the viability curve (AUC), normalized [4]: −1.258
- area under the viability curve (AUC), normalized [5]: −0.2731
- area under the viability curve (AUC), normalized [6]: 1.473
- area under the viability curve (AUC), normalized [7]: 0.186
- area under the viability curve (AUC), normalized [8]: 1.902
- area under the viability curve (AUC), normalized [9]: 0
- area under the viability curve (AUC), normalized [10]: −1.616
- area under the viability curve (AUC), normalized [11]: 3.637
- area under the viability curve (AUC), normalized [12]: −1.013
- area under the viability curve (AUC), normalized [13]: 2.909
- area under the viability curve (AUC), normalized [14]: −0.872
- area under the viability curve (AUC), normalized [15]: −0.5105
- area under the viability curve (AUC), normalized [16]: 0.811
- area under the viability curve (AUC), normalized [17]: 0.05016
- area under the viability curve (AUC), normalized [18]: −1.778
- area under the viability curve (AUC), normalized [19]: 2.148
- area under the viability curve (AUC), normalized [20]: −0.3604
- area under the viability curve (AUC), normalized [21]: −1.106
- area under the viability curve (AUC), normalized [22]: −1.998
- area under the viability curve (AUC), normalized [23]: −0.3898
- area under the viability curve (AUC), normalized [24]: −0.02282
- area under the viability curve (AUC), normalized [25]: 4.877
- area under the viability curve (AUC), normalized [26]: −0.8302
- area under the viability curve (AUC), normalized [27]: 0.5673
- area under the viability curve (AUC), normalized [28]: 3.81
- area under the viability curve (AUC), normalized [29]: 0.989
